# Data from patent publication US20260021061A1, “ARIADNE AND ANALOGS FOR THE TREATMENT OF NEUROLOGICAL AND NEUROMUSCLAR DISORDERS” (priority 2022, published 2026).
# Tests used:
# Potassium Channel [KA] = test: SafetyScreen44 265510; type: binding, rat; settings: 10 μM; [125I]alpha-Dendrotoxin; cerebral cortex
# Description: (§1) A broad screen of 44 molecular targets (SafetyScreen44, Eurofins-Panlabs) for Ariadne were performed, which includes G protein-coupled receptors, steroid nuclear receptors, ion channels, neurotransmitter transporters, and metabolic and signaling enzymes. Only two molecular targets, 5-HT2A and 5-HT2B receptors, emerged above the positive hit threshold, defined as 50% displacement of standard radioligands by 10 uM concentration of Ariadne (FIG. 1b, and Table 1).
# (§2) For species, “H”=human, “R”=rat. Test compound screened at all targets at concentration of 10 μM.
# Androgen (Testosterone) = molecular target: T1, Androgen (Testosterone) (Homo sapiens, UniProt P10275, T878A); test: SafetyScreen44 206000; type: binding; settings: 10 μM; [3H]Methyltrienolone; LNCaP clone FGC cells
# T1 construct: Eurofins-Panlabs (contract screen) 206000
# T1 sequence (P10275 whole entry T878A): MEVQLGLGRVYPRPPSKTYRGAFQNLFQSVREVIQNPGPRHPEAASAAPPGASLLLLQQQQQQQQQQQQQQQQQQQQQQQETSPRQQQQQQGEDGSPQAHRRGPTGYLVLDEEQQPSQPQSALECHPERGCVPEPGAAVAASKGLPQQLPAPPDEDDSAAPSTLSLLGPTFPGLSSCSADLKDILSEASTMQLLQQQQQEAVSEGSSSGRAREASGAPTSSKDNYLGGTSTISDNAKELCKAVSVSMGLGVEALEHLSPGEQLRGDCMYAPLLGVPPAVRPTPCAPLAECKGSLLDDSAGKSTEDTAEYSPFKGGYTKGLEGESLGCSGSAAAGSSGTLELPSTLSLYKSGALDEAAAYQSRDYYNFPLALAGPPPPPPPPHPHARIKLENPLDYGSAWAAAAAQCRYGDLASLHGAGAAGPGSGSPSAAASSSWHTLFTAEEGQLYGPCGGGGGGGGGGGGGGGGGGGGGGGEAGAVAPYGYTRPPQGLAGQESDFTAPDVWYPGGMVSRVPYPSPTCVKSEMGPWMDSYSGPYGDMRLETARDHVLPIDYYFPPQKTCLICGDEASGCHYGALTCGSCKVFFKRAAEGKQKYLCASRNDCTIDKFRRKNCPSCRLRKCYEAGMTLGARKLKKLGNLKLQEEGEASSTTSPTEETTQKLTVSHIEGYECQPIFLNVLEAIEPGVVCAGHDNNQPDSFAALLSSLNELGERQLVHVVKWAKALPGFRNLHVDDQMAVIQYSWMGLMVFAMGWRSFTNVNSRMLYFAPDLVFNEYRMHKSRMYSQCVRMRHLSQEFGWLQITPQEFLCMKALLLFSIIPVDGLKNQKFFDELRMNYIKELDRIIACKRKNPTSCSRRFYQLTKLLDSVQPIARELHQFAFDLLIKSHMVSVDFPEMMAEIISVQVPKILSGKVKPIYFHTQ
# Description: as §1, §2
# Endothelin ETA = molecular target: T2, Endothelin ETA (Homo sapiens, UniProt P25101); test: SafetyScreen44 224010; type: binding; settings: 10 μM; [125I]Endothelin-1; recombinant
# T2 construct: Eurofins-Panlabs (contract screen) 224010
# Description: as §1, §2
# Cyclooxygenase COX-2 = molecular target: T3, Cyclooxygenase COX-2 (Homo sapiens, UniProt P35354); test: SafetyScreen44 118030; type: biochemical; settings: 10 μM; Arachidonic acid; recombinant
# T3 construct: Eurofins-Panlabs (contract screen) 118030
# T3 sequence (P35354 18-604): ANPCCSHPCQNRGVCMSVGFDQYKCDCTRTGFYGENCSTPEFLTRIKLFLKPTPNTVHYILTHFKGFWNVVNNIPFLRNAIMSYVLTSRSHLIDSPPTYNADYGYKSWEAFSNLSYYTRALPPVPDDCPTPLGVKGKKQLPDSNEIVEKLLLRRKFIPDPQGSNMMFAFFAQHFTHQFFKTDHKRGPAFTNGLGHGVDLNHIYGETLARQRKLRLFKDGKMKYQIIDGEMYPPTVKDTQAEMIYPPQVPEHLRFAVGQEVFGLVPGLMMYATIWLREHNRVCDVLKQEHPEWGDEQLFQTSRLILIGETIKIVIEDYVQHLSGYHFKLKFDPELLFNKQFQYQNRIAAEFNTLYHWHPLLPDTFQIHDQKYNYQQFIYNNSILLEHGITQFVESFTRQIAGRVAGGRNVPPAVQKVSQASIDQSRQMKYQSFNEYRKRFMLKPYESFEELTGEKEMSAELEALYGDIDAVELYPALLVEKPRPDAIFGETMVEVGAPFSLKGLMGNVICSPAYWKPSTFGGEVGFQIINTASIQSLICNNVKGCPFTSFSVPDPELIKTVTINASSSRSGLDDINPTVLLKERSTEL
# Description: as §1, §2
# Opiate μ (OP3, MOP) = molecular target: T4, Opiate μ (OP3, MOP) (Homo sapiens, UniProt P35372); test: SafetyScreen44 260410; type: binding; settings: 10 μM; [3H]Diprenorphine; recombinant
# T4 construct: purchased Eurofins-Panlabs (contract screen SafetyScreen44) assay ID 260410
# T4 sequence (P35372 whole entry): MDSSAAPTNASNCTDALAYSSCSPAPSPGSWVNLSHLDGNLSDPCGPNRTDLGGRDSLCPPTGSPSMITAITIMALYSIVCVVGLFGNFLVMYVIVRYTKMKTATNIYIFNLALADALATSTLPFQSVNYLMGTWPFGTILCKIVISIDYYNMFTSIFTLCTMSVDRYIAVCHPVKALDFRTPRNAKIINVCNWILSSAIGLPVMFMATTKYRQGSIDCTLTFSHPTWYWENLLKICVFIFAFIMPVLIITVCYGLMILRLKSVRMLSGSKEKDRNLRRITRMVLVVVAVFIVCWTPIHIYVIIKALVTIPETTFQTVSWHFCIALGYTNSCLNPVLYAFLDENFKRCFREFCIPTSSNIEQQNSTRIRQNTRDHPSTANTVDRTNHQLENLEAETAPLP
# Description: as §1, §2
# Cyclooxygenase COX-1 = molecular target: T5, Cyclooxygenase COX-1 (Homo sapiens, UniProt P23219); test: SafetyScreen44 116030; type: biochemical; settings: 10 μM; Arachidonic acid; recombinant
# T5 construct: Eurofins-Panlabs (contract screen) 116030
# Description: as §1, §2
# cats = settings: in comparison to (R)-DOM; cited from earlier work
# [1] = molecular target: T6, Potassium Channel hERG, [3H]Dofetilide (Homo sapiens, UniProt Q12809); test: SafetyScreen44 265910; type: binding; settings: 10 μM, recombinant
# T6 construct: purchased Eurofins-Panlabs (contract screen SafetyScreen44) assay ID 265910
# T6 sequence (Q12809 whole entry): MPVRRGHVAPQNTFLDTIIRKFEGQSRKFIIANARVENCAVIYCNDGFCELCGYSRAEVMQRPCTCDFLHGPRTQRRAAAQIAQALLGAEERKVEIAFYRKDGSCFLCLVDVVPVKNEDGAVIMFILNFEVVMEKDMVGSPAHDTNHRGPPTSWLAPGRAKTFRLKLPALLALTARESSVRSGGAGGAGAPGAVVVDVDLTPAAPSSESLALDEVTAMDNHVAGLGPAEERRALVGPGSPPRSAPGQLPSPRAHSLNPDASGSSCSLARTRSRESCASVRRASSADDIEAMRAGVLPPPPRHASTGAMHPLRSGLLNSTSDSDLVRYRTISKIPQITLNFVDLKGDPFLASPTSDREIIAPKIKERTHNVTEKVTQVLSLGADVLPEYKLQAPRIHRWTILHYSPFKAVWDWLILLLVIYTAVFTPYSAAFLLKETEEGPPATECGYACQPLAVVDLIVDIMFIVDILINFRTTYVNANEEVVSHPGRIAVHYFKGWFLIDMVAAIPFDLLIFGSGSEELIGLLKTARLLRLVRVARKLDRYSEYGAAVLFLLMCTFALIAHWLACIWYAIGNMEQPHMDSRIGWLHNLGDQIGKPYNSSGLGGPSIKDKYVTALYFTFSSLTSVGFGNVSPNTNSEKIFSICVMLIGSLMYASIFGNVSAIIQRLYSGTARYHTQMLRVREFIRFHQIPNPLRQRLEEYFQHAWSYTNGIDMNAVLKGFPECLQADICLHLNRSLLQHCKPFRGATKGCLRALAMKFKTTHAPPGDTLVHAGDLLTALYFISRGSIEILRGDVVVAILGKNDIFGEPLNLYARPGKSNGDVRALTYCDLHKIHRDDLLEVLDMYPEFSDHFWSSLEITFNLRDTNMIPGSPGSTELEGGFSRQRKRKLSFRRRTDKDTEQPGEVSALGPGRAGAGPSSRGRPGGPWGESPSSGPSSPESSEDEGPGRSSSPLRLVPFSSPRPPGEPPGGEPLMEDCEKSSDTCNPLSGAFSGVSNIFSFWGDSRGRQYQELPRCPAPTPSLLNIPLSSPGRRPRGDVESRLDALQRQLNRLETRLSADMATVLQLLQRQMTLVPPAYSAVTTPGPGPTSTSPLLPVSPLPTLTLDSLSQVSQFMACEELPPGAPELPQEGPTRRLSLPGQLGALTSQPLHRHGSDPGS
# Description: as §1, §2
# [2] = molecular target: T7, Protein Tyrosine Kinase, LCK (Homo sapiens, UniProt P06239); test: SafetyScreen44 176020; type: biochemical; settings: 10 μM; Poly(Glu:Tyr); recombinant
# T7 construct: Eurofins-Panlabs (contract screen) 176020
# T7 sequence (P06239 whole entry): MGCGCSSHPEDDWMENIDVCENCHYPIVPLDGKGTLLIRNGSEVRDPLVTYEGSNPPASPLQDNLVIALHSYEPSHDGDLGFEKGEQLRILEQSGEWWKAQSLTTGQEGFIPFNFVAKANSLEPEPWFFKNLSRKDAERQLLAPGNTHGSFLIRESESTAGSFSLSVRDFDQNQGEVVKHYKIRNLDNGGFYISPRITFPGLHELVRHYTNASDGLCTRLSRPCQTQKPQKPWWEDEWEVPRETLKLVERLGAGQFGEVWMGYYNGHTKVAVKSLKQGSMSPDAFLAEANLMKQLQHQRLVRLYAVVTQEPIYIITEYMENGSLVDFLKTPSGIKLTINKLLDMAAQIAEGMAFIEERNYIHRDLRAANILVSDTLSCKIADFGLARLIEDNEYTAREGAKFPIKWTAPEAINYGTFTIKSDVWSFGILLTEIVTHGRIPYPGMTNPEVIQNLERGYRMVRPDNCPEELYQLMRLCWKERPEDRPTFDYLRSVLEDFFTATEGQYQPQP
# Description: as §1, §2
# Histamine H2 = molecular target: T8, Histamine H2 (Homo sapiens, UniProt P25021); test: SafetyScreen44 239710; type: binding; settings: 10 μM; [125I]Aminopotentidine; recombinant
# T8 construct: purchased Eurofins-Panlabs (contract screen SafetyScreen44) assay ID 239710
# T8 sequence (P25021 whole entry): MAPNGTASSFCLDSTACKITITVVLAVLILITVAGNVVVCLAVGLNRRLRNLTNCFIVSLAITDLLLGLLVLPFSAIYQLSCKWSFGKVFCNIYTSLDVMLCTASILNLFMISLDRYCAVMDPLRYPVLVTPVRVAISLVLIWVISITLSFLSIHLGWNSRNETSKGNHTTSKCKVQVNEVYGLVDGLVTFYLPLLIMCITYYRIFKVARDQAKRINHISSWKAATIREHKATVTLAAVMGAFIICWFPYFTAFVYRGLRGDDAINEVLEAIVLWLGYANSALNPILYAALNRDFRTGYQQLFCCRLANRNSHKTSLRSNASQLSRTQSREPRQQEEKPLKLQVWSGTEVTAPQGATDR
# Description: as §1, §2
# [3] = molecular target: T9, Cholecystokinin CCK1 (CCKA) (Homo sapiens, UniProt P32238); test: SafetyScreen44 218030; type: binding; settings: 10 μM; [125I]CCK-8; recombinant
# T9 construct: Eurofins-Panlabs (contract screen) 218030
# Description: as §1, §2
# [4] = molecular target: T10, Cholinesterase, Acetyl, ACES (Homo sapiens, UniProt P22303); test: SafetyScreen44 104010; type: biochemical; settings: 10 μM; substrate Acetylthiocholine; recombinant
# T10 construct: Eurofins-Panlabs (contract screen) 104010
# Description: as §1, §2
# rats [5] = settings: rat, in vivo; cited from earlier work
# Phosphodiesterase PDE3A = molecular target: T11, Phosphodiesterase PDE3A (Homo sapiens, UniProt Q14432); test: SafetyScreen44 152300; type: biochemical; settings: 10 μM; FAM-cAMP; recombinant
# T11 construct: Eurofins-Panlabs (contract screen) 152300
# T11 sequence (Q14432 whole entry): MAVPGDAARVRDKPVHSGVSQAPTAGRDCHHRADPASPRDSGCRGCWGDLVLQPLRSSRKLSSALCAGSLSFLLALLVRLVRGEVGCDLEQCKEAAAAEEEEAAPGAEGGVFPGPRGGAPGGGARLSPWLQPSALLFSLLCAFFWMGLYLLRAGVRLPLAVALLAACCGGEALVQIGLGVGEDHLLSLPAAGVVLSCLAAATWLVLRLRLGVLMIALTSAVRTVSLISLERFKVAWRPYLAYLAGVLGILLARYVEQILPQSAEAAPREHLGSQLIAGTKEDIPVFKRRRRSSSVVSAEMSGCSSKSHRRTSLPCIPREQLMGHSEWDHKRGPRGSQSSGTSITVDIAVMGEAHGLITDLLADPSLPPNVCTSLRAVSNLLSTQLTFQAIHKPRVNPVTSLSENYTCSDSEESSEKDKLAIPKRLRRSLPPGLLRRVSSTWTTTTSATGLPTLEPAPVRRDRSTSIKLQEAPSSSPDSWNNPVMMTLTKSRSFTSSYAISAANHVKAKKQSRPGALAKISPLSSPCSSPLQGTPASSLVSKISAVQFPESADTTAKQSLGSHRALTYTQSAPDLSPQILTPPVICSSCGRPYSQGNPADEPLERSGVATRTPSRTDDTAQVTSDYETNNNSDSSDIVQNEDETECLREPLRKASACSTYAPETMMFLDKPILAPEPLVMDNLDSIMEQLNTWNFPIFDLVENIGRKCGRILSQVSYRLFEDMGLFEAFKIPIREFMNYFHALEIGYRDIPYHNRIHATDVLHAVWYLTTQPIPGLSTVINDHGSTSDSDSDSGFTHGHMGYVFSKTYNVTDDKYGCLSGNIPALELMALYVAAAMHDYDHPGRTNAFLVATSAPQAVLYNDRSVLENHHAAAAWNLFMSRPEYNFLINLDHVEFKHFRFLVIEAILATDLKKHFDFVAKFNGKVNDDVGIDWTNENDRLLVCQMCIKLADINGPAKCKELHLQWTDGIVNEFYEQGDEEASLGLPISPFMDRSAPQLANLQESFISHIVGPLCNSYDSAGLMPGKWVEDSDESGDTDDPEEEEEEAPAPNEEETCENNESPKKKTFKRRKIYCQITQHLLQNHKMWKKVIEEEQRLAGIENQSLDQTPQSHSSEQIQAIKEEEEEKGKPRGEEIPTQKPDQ
# Description: as §1, §2
# C57BL/6J mice = test: Open field locomotion in mice; type: in vivo, mouse
# rats [6] = settings: 10 mg/kg, s.c. or i.p.; absence of stimulant-like effects; cited from earlier work
# 5-HT2B = 5-HT2B (Homo sapiens, UniProt P41595); test: Calcium flux assay; type: cell-based; settings: read-out: Emax relative to 5-HT, calcium flux
# Description: Therefore, an orthogonal assay measuring calcium flux was also performed for the 5-HT2 receptors (Klein et al., 2020).
SMILES,% Response (Potassium Channel [KA]),% Response (Androgen (Testosterone)),% Response (Endothelin ETA),% Response (Cyclooxygenase COX-2),"% Response (Opiate μ (OP3, MOP))",% Response (Cyclooxygenase COX-1),combined score of DOM-like behavioral features (cats),% Response [1],% Response [2],% Response (Histamine H2),% Response [3],% Response [4],substitution for MDMA stimulus (rats [5]),substitution in LSD trained animals (rats [5]),% Response (Phosphodiesterase PDE3A),"general locomotion in novel environment (C57BL/6J mice; 10 mg/kg, s.c. (peak HTR dose))",general locomotion in novel environment (C57BL/6J mice; 30 mg/kg),time in the center of the arena (C57BL/6J mice; open field),avoidance behavior (rats [6]),Emax (5-HT2B)
"CCC(N)Cc1cc(OC)c(C)cc1OC (racemic) [Compound 32, 1-(2,5-dimethoxy-4-methylphenyl)butan-2-amine]",−6%,−8%,−6%,−2%,−11%,−31%,low combined score,18%,13%,21%,3%,12%,full substitution,substituted responding,−4%,,,,,
CC[C@@H](N)Cc1cc(OC)c(C)cc1OC [(R)-Ariadne],,,,,,,,,,,,,,,,minor sedative effect,marked sedation,trend for spending less time in the center,improved avoidance behavior,64%
